Test results as given in paper PMC5410965 (ACS infectious diseases, 2016).

Legend:
[1] = test system: National Cancer Institute panel of sixty human cancer cell lines; assay: National Cancer Institute panel of sixty human cancer cell lines, growth; assay type: cell-based; conditions: 10 μM; NCI sixty human cancer cell lines
[2] = test system: HepG2 human liver carcinoma cell line; assay: Toxicity to HepG2 cells; conditions: concentrations as high as 50 μM
[3] = biological target: Mtb 20S (Mycobacterium tuberculosis, UniProt P9WHT9); conditions: second-order rate constant for inhibition; substrate Suc-LLVY-AMC; triplicate
Chain of Mtb 20S (P9WHT9 58-291): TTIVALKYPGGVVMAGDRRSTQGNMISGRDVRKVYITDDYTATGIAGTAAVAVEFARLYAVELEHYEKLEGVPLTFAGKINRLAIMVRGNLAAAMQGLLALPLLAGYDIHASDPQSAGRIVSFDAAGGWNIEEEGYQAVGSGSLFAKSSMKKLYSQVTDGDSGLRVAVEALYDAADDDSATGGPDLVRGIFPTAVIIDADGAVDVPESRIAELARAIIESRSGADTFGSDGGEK
Chain of Mtb 20S (P9WHU1 whole entry partner): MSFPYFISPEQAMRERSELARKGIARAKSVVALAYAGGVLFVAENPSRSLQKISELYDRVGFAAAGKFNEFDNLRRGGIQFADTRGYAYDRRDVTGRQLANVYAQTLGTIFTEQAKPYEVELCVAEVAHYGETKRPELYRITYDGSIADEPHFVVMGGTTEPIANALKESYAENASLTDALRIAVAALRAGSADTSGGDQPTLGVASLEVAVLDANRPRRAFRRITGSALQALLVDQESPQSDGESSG

[4] = test system: Mtb 20S versus human 20S; conditions: human 20S over Mtb 20S; cited from earlier work

Row | Structure (SMILES) | mean growth compared to untreated (vehicle) controls [1] | toxicity to HepG2 cells [2] | Mtb 20S kin/Ki [3] | preference for reversible inhibition of human 20S [4]
1 | COC(=O)[C@@H](NC(=O)N[C@H](C(=O)N[C@H]1CCCCNC(=O)/C=C/[C@H](C(C)C)NC1=O)C(C)C)C(C)C [Compound 1, syringolin B methyl ester] | 27% | toxic | 4.60 M⁻¹ s⁻¹ | 
2 | CC(C)C[C@H](NC(=O)[C@H](Cc1ccccc1)NC(=O)c1cnccn1)B(O)O [bortezomib] |  |  |  | 18 fold
